Activity calls are given as the source filed them. The calls are words filed in the database; no cut-off is given here.
Assays:
[1] = biological target: T1, Mucosa-associated lymphoid tissue lymphoma translocation protein 1 (Homo sapiens) (UniProt Q9UDY8); assay: (§1) Inhibition of recombinant Malt1 (unknown origin) at 1 to 100 uM preincubated for 1 hr followed by (S)-1-((6-(4-(4-(5,5-Difluoro-3,7-bis(4-methoxyphenyl)-5H-4l4,5l4-dipyrrolo[1,2-c:20,10-f][1,3,2]diazaborinin-10-yl)butyl)-1H-1,2,3-triazol-1-yl)hexanoyl)-L-valyl-L-arginyl)-N-((S)-1-fluoro-6-guanidino-2-oxohexan-3-yl)pyrrolidine-2-carboxamide addition and incubated for 1 hr by SDS-PAGE based competitive activity-based protein profiling assay
T1 sequence (whole entry): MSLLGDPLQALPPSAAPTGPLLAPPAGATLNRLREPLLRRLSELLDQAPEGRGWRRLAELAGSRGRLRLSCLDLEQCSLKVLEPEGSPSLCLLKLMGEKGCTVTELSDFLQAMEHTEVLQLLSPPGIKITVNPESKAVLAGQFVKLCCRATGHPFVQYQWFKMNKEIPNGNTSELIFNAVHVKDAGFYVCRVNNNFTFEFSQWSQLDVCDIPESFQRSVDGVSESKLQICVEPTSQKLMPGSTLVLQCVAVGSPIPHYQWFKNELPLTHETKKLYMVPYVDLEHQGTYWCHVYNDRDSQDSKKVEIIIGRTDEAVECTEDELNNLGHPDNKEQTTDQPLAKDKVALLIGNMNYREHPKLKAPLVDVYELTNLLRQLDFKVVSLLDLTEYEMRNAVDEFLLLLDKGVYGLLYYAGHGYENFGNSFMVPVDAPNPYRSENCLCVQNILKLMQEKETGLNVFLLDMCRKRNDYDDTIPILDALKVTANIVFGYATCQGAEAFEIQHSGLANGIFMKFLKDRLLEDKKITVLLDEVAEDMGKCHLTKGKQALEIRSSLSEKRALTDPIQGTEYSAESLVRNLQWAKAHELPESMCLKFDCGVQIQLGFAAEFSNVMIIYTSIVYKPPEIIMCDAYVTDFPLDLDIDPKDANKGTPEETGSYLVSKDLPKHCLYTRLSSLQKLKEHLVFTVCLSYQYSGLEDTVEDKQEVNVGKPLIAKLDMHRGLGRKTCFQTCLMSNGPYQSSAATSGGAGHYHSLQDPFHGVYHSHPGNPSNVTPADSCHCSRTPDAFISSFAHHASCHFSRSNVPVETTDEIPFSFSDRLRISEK

[2] = biological target: T2, Mucosa-associated lymphoid tissue lymphoma translocation protein 1 (Homo sapiens, UniProt Q9UDY8); assay: as §1
T2 sequence (Q9UDY8 whole entry): T1 sequence (whole entry)

[3] = biological target: T1, Mucosa-associated lymphoid tissue lymphoma translocation protein 1 (Homo sapiens); assay: as §1, with “at 10” for “at 1”, “to 1000” for “to 100”
[4] = biological target: T2, Mucosa-associated lymphoid tissue lymphoma translocation protein 1; assay: as above
Jurkat = assay: Binding affinity to Malt1 C/A mutant (unknown origin) overexpressed in human Jurkat T cells assessed as protein labeling at 1 uM after 50 mins by Western blot analysis; assay type: cell-based
[5] = biological target: T1, Mucosa-associated lymphoid tissue lymphoma translocation protein 1 (Homo sapiens); assay: Binding affinity to recombinant GST-Malt1 (325 to 760 residues) (unknown origin) assessed as protein labeling at 0.05 to 0.5 uM after 1 hr by SDS-PAGE based activity-based protein profiling assay
[6] = biological target: T1, Mucosa-associated lymphoid tissue lymphoma translocation protein 1 (Homo sapiens); assay: Binding affinity to recombinant GST-Malt1 (325 to 760 residues) (unknown origin) assessed as protein labeling at 1 uM after 1 hr by SDS-PAGE based activity-based protein profiling assay
[7] = biological target: T1, Mucosa-associated lymphoid tissue lymphoma translocation protein 1 (Homo sapiens); assay: Binding affinity to Malt1 in phorbol 12-myristate 13-acetate/ionomycin stimulated human Jurkat T cells assessed as protein labeling at 1 to 3 uM after 50 mins by SDS-PAGE based activity-based protein profiling assay; assay type: cell-based
[8] = biological target: T1, Mucosa-associated lymphoid tissue lymphoma translocation protein 1 (Homo sapiens); assay: Binding affinity to Flag-tagged Malt1 (unknown origin) overexpressed in human Jurkat T cells assessed as protein labeling at 1 uM after 50 mins by Western blot analysis; assay type: cell-based
[9] = biological target: T1, Mucosa-associated lymphoid tissue lymphoma translocation protein 1 (Homo sapiens); assay: Binding affinity to Malt1 in phorbol 12-myristate 13-acetate/ionomycin stimulated human Jurkat T cells assessed as protein labeling at 1 uM after 50 mins by SDS-PAGE based activity-based protein profiling assay; assay type: cell-based
[10] = biological target: T1, Mucosa-associated lymphoid tissue lymphoma translocation protein 1 (Homo sapiens); assay: Binding affinity to Malt1 in phorbol 12-myristate 13-acetate/ionomycin stimulated human Jurkat T cells assessed as protein labeling at 3 uM after 50 mins by SDS-PAGE based activity-based protein profiling assay; assay type: cell-based
[11] = biological target: T1, Mucosa-associated lymphoid tissue lymphoma translocation protein 1 (Homo sapiens); assay: Binding affinity to recombinant GST-Malt1 (325 to 760 residues) (unknown origin) assessed as protein labeling at 0.1 to 1 uM after 1 hr by SDS-PAGE based activity-based protein profiling assay

Row | Compound | pIC50(app) [3] | IC50 [4] [µM] | also measured
1 | COCCOc1nc(-c2ccc(Cl)c(Cl)c2)n(-c2ccc(NC(=O)CCl)cc2)n1 | – | – | pIC50(app) [1]: 5.11; IC50 [2]: 7.8 µM
2 | COCCOc1nc(-c2cccc(C(F)(F)F)c2)n(-c2ccc(NC(=O)CCl)cc2)n1 | 4.03 | 93 | –
3 | COCCOc1nc(-c2cccc(Cl)c2)n(-c2ccc(NC(=O)CCl)cc2)n1 | 4.57 | 26 | –
4 | COCCOc1nc(-c2ccc(C)c(C)c2)n(-c2ccc(NC(=O)CCl)cc2)n1 | 4.82 | 15 | –
5 | COCCOc1nc(-c2ccc(OC)cc2)n(-c2ccc(NC(=O)CCl)cc2)n1 | 4.35 | 45 | –
6 | COCCOc1nc(-c2cccc(C)c2)n(-c2ccc(NC(=O)CCl)cc2)n1 | 3.56 | 278 | –
7 | C=CC(=O)Nc1ccc(-n2nc(OCCOC)nc2-c2ccc(Cl)c(Cl)c2)cc1 | 4.47 | 34 | –
8 | COCCOc1nc(-c2ccc(Cl)cc2)n(-c2ccc(NC(=O)CCl)cc2)n1 | 5.81 | 1.6 | pIC50(app) [1]: 5.52; IC50 [2]: 3 µM
9 | COCCOc1nc(-c2cccc(F)c2)n(-c2ccc(NC(=O)CCl)cc2)n1 | 4.05 | 88 | –
10 | COCCOc1nc(-c2ccc(Br)cc2)n(-c2ccc(NC(=O)CCl)cc2)n1 | 5.82 | 1.5 | pIC50(app) [1]: 5.68; IC50 [2]: 2.1 µM
11 | CN1\C(=C/C=C/C=C/C2=[N+](CCCCCC(=O)NCCOc3nc(-c4ccc(Cl)c(Cl)c4)n(-c4ccc(NC(=O)CCl)cc4)n3)c3ccccc3C2(C)C)C(C)(C)c2ccccc21 | – | – | Activity (Jurkat): Active; Activity [5]: inactive; Activity [6]: Active; Activity [7]: inactive; Activity [8]: Active
12 | COCCOc1nc(-c2ccc(F)c(F)c2)n(-c2ccc(NC(=O)CCl)cc2)n1 | 4.59 | 26 | –
13 | COCCOc1nc(-c2ccc(C(F)(F)F)cc2)n(-c2ccc(NC(=O)CCl)cc2)n1 | 4.66 | 22 | –
14 | COCCOc1nc(-c2ccc(-c3ccccc3)cc2)n(-c2ccc(NC(=O)CCl)cc2)n1 | 4.66 | 22 | –
15 | COCCOc1nc(-c2ccc3c(c2)OCO3)n(-c2ccc(NC(=O)CCl)cc2)n1 | 4.06 | 88 | –
16 | COCCOc1nc(-c2ccccc2)n(-c2ccc(NC(=O)CCl)cc2)n1 | 4.01 | 98 | –
17 | CC1=CC(C)=[N+]2C1=Cc1ccc(CCC(=O)N[C@@H](CC(C)C)C(=O)N[C@@H](CCCNC(=N)N)C(=O)N[C@@H](CO)C(=O)N[C@@H](CCCNC(=N)N)C(=O)COC(=O)c3c(C)cccc3C)n1[B-]2(F)F | – | – | Activity (Jurkat): inactive; Activity [9]: Active; Activity [6]: Active; Activity [8]: Active
18 | COCCOc1nc(-c2cccc(Br)c2)n(-c2ccc(NC(=O)CCl)cc2)n1 | 4.78 | 17 | –
19 | COCCOc1nc(-c2cccc(OC)c2)n(-c2ccc(NC(=O)CCl)cc2)n1 | 3.71 | 194 | –
20 | COCCOc1nc(-c2ccc(F)cc2)n(-c2ccc(NC(=O)CCl)cc2)n1 | 5.17 | 6.8 | pIC50(app) [1]: 4.99; IC50 [2]: 10 µM
21 | COCCOc1nc(-c2ccc(C)cc2)n(-c2ccc(NC(=O)CCl)cc2)n1 | 5.05 | 9 | pIC50(app) [1]: 5.09; IC50 [2]: 8.2 µM
22 | COCCOc1nc(-c2ccc(OC)c(OC)c2)n(-c2ccc(NC(=O)CCl)cc2)n1 | 4.92 | 12 | –
23 | COc1ccc(C2=[N+]3C(=C(CCCCc4cn(CCCCCC(=O)N[C@H](C(=O)N[C@@H](CCCNC(=N)N)C(=O)N5CCC[C@H]5C(=O)N[C@@H](CCCNC(=N)N)C(=O)CF)C(C)C)nn4)c4ccc(-c5ccc(OC)cc5)n4[B-]3(F)F)C=C2)cc1 | – | – | Activity (Jurkat): inactive; Activity [9]: inactive; Activity [8]: Active; Activity [10]: Active; Activity [11]: Active
